Two compounds from patent publication US9474780B2, “GIP and GLP-1 co-agonist compounds” (Eli Lilly and Company, priority 2015, dated 2016) can be followed below.

Read-outs that look alike come from different tables or passages of the source. Numbered stars: 1 amine (or outer) side, 2 acyl side, 3 side chain; on linkers, the order of the positions; unused ones are H or OH. Square brackets hold non-standard residues; d marks the D form. Side chains are listed from the residue outwards. Peptide text beside a SMILES is read from it. * marks the point of attachment. C20 diacid = O=C(O)CCCCCCCCCCCCCCCCCCC(=O)*; γGlu = O=C(O)[C@H](CCC(=O)[*:2])N[*:1]; 1Nal = N[C@@H](Cc1cccc2ccccc12)C(=O)O; AEEA = NCCOCCOCC(=O)O; Aib = CC(C)(N)C(=O)O

Data set [1] has as its target T1, human GLP-1R (Homo sapiens, UniProt P43220).
T1 construct: expressed in transfected cells; host or cells: 293HEK, Hygromycin-selected; crude plasma membranes
The data set is described as follows: Functional hGLP-1R cAMP assay in HEK-293 clonal cells. The data set is classed as cell-based. As to conditions: HEK293; percent of maximal response of hGLP-1(7-36)NH2. For orientation: Cyclic AMP is a second messenger, typically raised through Gs and lowered through Gi signalling.
Protocol: After an incubation of 60 minutes at room temperature, the resulting increase in intracellular cAMP is quantitatively determined using the CisBio cAMP Dynamic 2 HTRF Assay Kit (Bedford, Mass.). Briefly, cAMP levels within the cell are detected by adding the cAMP-d2 conjugate in cell lysis buffer (20 μl) followed by the antibody anti-cAMP-Eu^3+-Cryptate, also in cell lysis buffer (20 μl). The resulting competitive assay is incubated for at least 60 minutes at room temperature, then detected using a PerkinElmer Envision® instrument with excitation at 320 nm and emission at 665 nm and 620 nm Envision units (emission at 665 nm/620 nm*10,000) are inversely proportional to the amount of cAMP present and are converted to nM cAMP per well using a cAMP standard curve. […] A relative EC50 value and percent top (Emax) is derived by non-linear regression analysis using the percent maximal response versus the concentration of the compound of the present invention, fitted to a four-parameter logistic equation.

The nature of data set [2]: Pharmacokinetics in cynomolgus monkeys. The data set is classed as in vivo. The following applies: cynomolgus monkey, plasma. The procedure:
The compounds are administered by a single intravenous or subcutaneous dose (0.2 mg/kg) in 20 mM citrate buffer (pH 7.0) at a volume of 0.21 ml/kg. Blood is collected from each animal at 2, 4, 8, 12, 24, 48, 72, 96, 120, 144, 168, 204, 240, and 312 hours post-dosage. The plasma concentrations of compounds of the present invention are determined by a LC/MS method. Briefly, a compound of the present invention is extracted from 100% Monkey plasma sample (50 μl) diluted with 1×PBS (150 μl) and mixed with N-butanol (400 μl). Three distinct liquid layers are formed with the compound located in the top layer. A volume of 200 μl is transferred to a v-bottom 96-well plate, dried down using heated Nitrogen gas and reconstituted with 100 μl of 30% acetonitrile/0.1% formic acid. 20 μl of the reconstituted sample is injected onto a Supelco Analytical Discovery bio wide C5 3 μm column. The column effluent is directed into a Thermo Q-Exactive mass spectrometer for detection and quantitation.

Data set [3] is described as follows: Plasma corticosterone in Sprague Dawley rats. In kind it is in vivo, rat. As to conditions: for Corticosterone, Mean: 16 hours. The procedure: Plasma corticosterone levels are evaluated using Sprague Dawley Rats (Harlan, Indianapolis), weighing approximately 220 g and acclimated for at least 72 hours before handling. The rats are then dosed with vehicle (20 mM citrate buffer, pH 7), semaglutide (10 nmol/kg), or compounds of the present invention at 3, 10 or 30 nmol/kg s.c. with 8 rats per dose group. The rats are decapitated 16 hours later. Blood is collected into EDTA tubes on ice, then centrifuged 5 minutes at 8000 RPM in a Eppendorf 5402 tabletop centrifuge. Plasma is stored at −80° C. until analysis.
For corticosterone analysis, corticosterone standards (Sigma, 27840) are prepared by serial dilutions in HPLC-grade methanol, H2O and the addition of 5% charcoal stripped rat serum (Bioreclamation, RATSRM-STRPD-HEV). Rat plasma samples are diluted with PBS, precipitated with cold methanol, incubated for 20 minutes at −20° C., and then centrifuged at 14,000 RPM with an Eppendorf 5417R at 4° C. Supernatants are extracted, evaporated under a stream of N2 gas, and reconstituted in MeOH/H2O (1:1) solution.

For another data set, the target named is Human GCGR (Homo sapiens, UniProt P47871). In words: Functional hGCGR cAMP assay in HEK-293 clonal cells.
Human GCGR, sequence (P47871 26-477): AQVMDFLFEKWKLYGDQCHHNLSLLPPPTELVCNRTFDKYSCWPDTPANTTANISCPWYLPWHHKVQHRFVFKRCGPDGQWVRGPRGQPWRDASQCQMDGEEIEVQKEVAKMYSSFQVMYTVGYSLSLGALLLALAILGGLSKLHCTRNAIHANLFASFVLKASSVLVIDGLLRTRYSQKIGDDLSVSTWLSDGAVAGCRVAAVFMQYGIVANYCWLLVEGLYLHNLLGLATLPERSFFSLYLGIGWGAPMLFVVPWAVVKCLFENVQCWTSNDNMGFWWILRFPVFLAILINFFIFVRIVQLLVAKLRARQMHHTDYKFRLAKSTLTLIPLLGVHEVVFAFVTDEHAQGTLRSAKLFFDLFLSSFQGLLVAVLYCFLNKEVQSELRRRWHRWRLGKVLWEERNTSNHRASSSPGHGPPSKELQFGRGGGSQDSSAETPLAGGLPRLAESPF
The next data set has as its target T2, human GIP-R (Homo sapiens, UniProt P48546).
T2 sequence (P48546 22-466): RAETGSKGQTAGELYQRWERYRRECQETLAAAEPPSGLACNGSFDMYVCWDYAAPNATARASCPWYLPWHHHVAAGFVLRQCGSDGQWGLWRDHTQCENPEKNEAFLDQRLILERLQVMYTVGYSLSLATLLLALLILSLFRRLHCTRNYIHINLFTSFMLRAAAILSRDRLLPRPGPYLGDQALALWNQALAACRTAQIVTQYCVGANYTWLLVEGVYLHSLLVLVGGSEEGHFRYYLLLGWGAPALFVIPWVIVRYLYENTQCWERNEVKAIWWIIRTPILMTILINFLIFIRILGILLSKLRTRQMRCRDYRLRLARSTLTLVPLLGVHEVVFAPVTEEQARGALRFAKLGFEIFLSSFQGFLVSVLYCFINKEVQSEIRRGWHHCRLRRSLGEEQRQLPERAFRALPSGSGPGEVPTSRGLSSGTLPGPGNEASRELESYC
In words: Functional hGIP-R cAMP assay in HEK-293 clonal cells. The following applies: HEK293, read-out: Human GIP-R Emax.

For data set [4], the target named is T1, human GLP-1R. In kind it is binding.
Data set [5] is described as follows: Rat in vivo insulin secretion following intravenous glucose (IVGTT). As to conditions: s.c. 16 hour prior to glucose. The procedure:
Male Wistar rats (Harlan Labs, Indianapolis, Ind.) are randomized by body weight and dosed 1.5 ml/kg s.c. 16 hour prior to glucose administration and then fasted. Doses are vehicle, 0.1, 0.3, 1, 3 and 10 nmol/kg. Animals are weighed, and then anesthetized with sodium pentobarbital (Nembutal Sodium solution; Ovation Pharmaceuticals) dosed i.p. (65 mg/kg, 30 mg/ml). A time zero blood sample is collected into EDTA tubes after which glucose is administered ([…], 5 ml/kg). Blood samples are collected at 2, 4, 6, 10, 20, and 30 minutes post glucose. Plasma glucose levels are determined using a Hitachi analyzer (Roche) and plasma insulin is measured by the MSD insulin assay (Meso Scale, Gaithersburg, Md.).

A short description of data set [6]: Weight loss, body composition and hepatic steatosis in DIO mice. The data set is classed as in vivo, mouse. As to conditions: for Blood Glucose: Day 15. As to the method:
The effects on weight loss, body composition and hepatic steatosis in DIO mice for compounds of the present invention are evaluated in C57/BL6 DIO mice. […] Animals are individually housed in a temperature-controlled (24° C.) facility with a 12 hour light/dark cycle (lights on 22:00), and free access to food and water. […] Daily body weight and food intake are measured throughout the study. Absolute changes in body weight are calculated by subtracting the body weight of the same animal prior to the first injection of compound. […] On Day 15, blood glucose is measured with Accu-Chek glucometer (Roche) from tail vein blood and then animals may be sacrificed and livers removed and frozen. Liver triglycerides, determined from homogenates of livers collected at sacrifice, and plasma cholesterol are measured on a Hitachi Modular P clinical analyzer. Statistical comparisons between groups are done using one-way ANOVA followed by Dunnett's multiple comparison test. The ED50 for weight loss lowering is determined in GraphPad Prism using the non-linear fit tool.

Where [7] appears, read: single SC 0.2 mg/kg, male monkeys, n = 2.

T1 sequence (P43220 24-463): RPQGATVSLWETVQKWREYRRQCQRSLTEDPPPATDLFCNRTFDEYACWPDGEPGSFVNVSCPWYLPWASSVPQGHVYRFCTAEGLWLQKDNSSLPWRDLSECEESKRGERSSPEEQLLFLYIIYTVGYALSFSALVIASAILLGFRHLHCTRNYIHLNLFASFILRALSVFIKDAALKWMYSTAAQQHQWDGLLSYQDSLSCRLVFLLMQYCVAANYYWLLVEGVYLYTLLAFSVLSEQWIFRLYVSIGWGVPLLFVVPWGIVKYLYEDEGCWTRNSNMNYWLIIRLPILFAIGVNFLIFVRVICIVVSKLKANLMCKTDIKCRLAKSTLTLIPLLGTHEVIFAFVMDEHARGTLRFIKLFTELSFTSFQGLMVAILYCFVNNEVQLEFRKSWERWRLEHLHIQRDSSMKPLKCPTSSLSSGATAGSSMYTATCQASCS

Take `CC[C@H](C)[C@H](NC(=O)[C@H](CC(C)C)NC(=O)[C@H](Cc1c[nH]c2ccccc12)NC(=O)[C@H](CCC(N)=O)NC(=O)[C@@H](NC(=O)[C@H](Cc1ccccc1)NC(=O)[C@H](C)NC(=O)[C@H](CCCCNC(=O)COCCOCCNC(=O)COCCOCCNC(=O)CC[C@H](NC(=O)CCCCCCCCCCCCCCCCCCC(=O)O)C(=O)O)NC(=O)[C@H](CCC(N)=O)NC(=O)[C@H](C)NC(=O)[C@@H](NC(=O)[C@H](CCCCN)NC(=O)[C@H](CC(=O)O)NC(=O)[C@H](CC(C)C)NC(=O)C(C)(C)NC(=O)[C@@H](NC(=O)[C@H](CO)NC(=O)[C@H](Cc1ccc(O)cc1)NC(=O)[C@H](CC(=O)O)NC(=O)[C@H](CO)NC(=O)[C@@H](NC(=O)[C@H](Cc1ccccc1)NC(=O)[C@@H](NC(=O)CNC(=O)[C@H](CCC(=O)O)NC(=O)C(C)(C)NC(=O)[C@@H](N)Cc1ccc(O)cc1)[C@@H](C)O)[C@@H](C)O)[C@@H](C)CC)[C@@H](C)CC)C(C)C)C(=O)N[C@@H](C)C(=O)NCC(=O)NCC(=O)N1CCC[C@H]1C(=O)N[C@@H](CO)C(=O)N[C@@H](CO)C(=O)NCC(=O)N[C@@H](C)C(=O)N1CCC[C@H]1C(=O)N1CCC[C@H]1C(=O)N1CCC[C@H]1C(=O)N[C@@H](CO)C(N)=O` [Example 1]: the Emax (usually the size of the effect at its maximum, as opposed to the concentration needed) is 85.2 ± 4.4% on human GLP-1R [1] and 97.9 ± 3% on human GIP-R. For the same compound, the Tmax in data set [2] (sc, single subcutaneous dose 0.2 mg/kg, read-out: time of mean maximum plasma concentration) is around 8 h. Besides, in data set [2] (0.2 mg/kg single dose), the clearance (as a rule, the rate of elimination divided by the concentration) is 17.5 mL/day/kg. The half-life in data set [2] (0.2 mg/kg single dose, read-out: mean half-life (converted)) is 3300 min. The bioavailability (as a rule, dose-corrected exposure relative to a reference, in per cent) in data set [2] (subcutaneous vs intravenous, 0.2 mg/kg) is around 83%. For the same compound, the “Corticosterone, Mean” value in data set [3] (3 nmol/kg s.c.) worked out at 52.21 ng/mL; in data set [3] (10 nmol/kg s.c.) it was 32.46 ng/mL; in data set [3] (30 nmol/kg s.c.), 31.35 ng/mL. For the same compound, the “increase in plasma corticosterone levels over control” value in data set [3] (Example 1 at 3, 10, 30 nmol/kg, semaglutide 10 nmol/kg) is listed as “no increase in plasma corticosterone levels”. Further, the EC50 – broadly, the midpoint of the concentration-response curve – at Human GCGR was above 1000 nM.

`CC[C@H](C)[C@H](NC(=O)[C@H](CC(C)C)NC(=O)[C@H](Cc1c[nH]c2ccccc12)NC(=O)[C@H](CCC(N)=O)NC(=O)[C@@H](NC(=O)[C@H](Cc1cccc2ccccc12)NC(=O)[C@H](C)NC(=O)[C@H](CCCCNC(=O)COCCOCCNC(=O)COCCOCCNC(=O)CC[C@H](NC(=O)CCCCCCCCCCCCCCCCCCC(=O)O)C(=O)O)NC(=O)[C@H](CCC(N)=O)NC(=O)[C@H](C)NC(=O)[C@@H](NC(=O)[C@H](CCCCN)NC(=O)[C@H](CC(=O)O)NC(=O)[C@H](CC(C)C)NC(=O)C(C)(C)NC(=O)[C@@H](NC(=O)[C@H](CO)NC(=O)[C@H](Cc1ccc(O)cc1)NC(=O)[C@H](CC(=O)O)NC(=O)[C@H](CO)NC(=O)[C@@H](NC(=O)[C@H](Cc1ccccc1)NC(=O)[C@@H](NC(=O)CNC(=O)[C@H](CCC(=O)O)NC(=O)C(C)(C)NC(=O)[C@@H](N)Cc1ccc(O)cc1)[C@@H](C)O)[C@@H](C)O)[C@@H](C)CC)[C@@H](C)CC)C(C)C)C(=O)N[C@@H](C)C(=O)NCC(=O)NCC(=O)N1CCC[C@H]1C(=O)N[C@@H](CO)C(=O)N[C@@H](CO)C(=O)NCC(=O)N[C@@H](C)C(=O)N1CCC[C@H]1C(=O)N1CCC[C@H]1C(=O)N1CCC[C@H]1C(=O)N[C@@H](CO)C(N)=O` [Example 8] (H-Y[Aib]EGTFTSDYSI[Aib]LDKIAQK([AEEA-AEEA-γGlu-C20 diacid])A[1Nal]VQWLIAGGPSSGAPPPS-NH2): the “Molar ratio of hGLP-1R/hGIP-R” value on human GLP-1R [4] (normalized by factor 4.53 from native GIP and GLP-1 binding) came out at 0.99. For the same compound, the “Absolute ratio of hGLP-1R/hGIP-R” value at human GLP-1R [4] (ratio of Ki values) worked out at 4.5. The maximum response (Emax) on human GLP-1R [1] amounted to 88.4 ± 2.3%; at human GIP-R it was 108 ± 4%. In addition, the CL/F (commonly clearance divided by bioavailability, as obtained after extravascular dosing) in data set [2] (setting [7]) is 4.7 mL/h/kg. For the same compound, in data set [2] (setting [7]), the highest level (Cmax) was 1000 ng/mL. The AUC(0-inf) in data set [2] (single SC 0.2 mg/kg, male monkeys, n = 2, read-out: Mean AUC0-inf) worked out at 42800 ng·h/mL. Also, the half-life in data set [2] (single SC 0.2 mg/kg, male monkeys, n = 2, read-out: Mean T1/2 (converted)) was 1380 min. Moreover, in data set [2] (single SC 0.2 mg/kg, male monkeys, n = 2, read-out: Mean Tmax), the Tmax amounted to 10 h. Further, in data set [5], the “% max increase of insulin AUC” value is given as 324 +/− 30%. Moreover, in data set [5], the “ED50 for insulin, rat IVGTT” value is 6.13 nmol/kg. Moreover, the “% Change from starting body weight” value was −17.13 ± 0.81 % in data set [6] (Table 10, 10 nmol/kg); −25.27 ± 0.70 % in data set [6] (Table 10, 30 nmol/kg); −29.91 ± 2.03 % in data set [6] (Table 10, 100 nmol/kg). Besides, the “% Change from starting fat mass” value in data set [6] (Table 10, 10 nmol/kg) was −34.20 ± 1.62 %; in data set [6] (Table 10, 30 nmol/kg), −54.24 ± 2.35 %; in data set [6] (Table 10, 100 nmol/kg), −65.23 ± 6.69 %. Besides, the “Plasma Cholesterol” value came out at 158.8 ± 7.57 mg/dL in data set [6] (Table 13, 10 nmol/kg); 139.4 ± 6.83 mg/dL in data set [6] (Table 13, 30 nmol/kg); 127.8 ± 6.34 mg/dL in data set [6] (Table 13, 100 nmol/kg). The “Blood Glucose” value in data set [6] (Table 13, 10 nmol/kg) was found to be 114.7 ± 4.61 mg/dL; in data set [6] (Table 13, 30 nmol/kg), 117.1 ± 8.26 mg/dL; in data set [6] (Table 13, 100 nmol/kg) it was 125.4 ± 6.30 mg/dL. The compound also gave an EC50 at Human GCGR above 1000 nM.
